Reference: BindingDB's records for doi:10.1016/S1074-5521(00)00052-1 (Northwestern University, 2001)

Target: Beta-lactamase (Escherichia coli (strain K12), UniProt P00811)
Assay: Enzyme Inhibition Assay
Details: pH 7
Text: Enzyme inhibition assay using AmpC or TEM-1 from escherichia coli.

Chain of Beta-lactamase (P00811 whole entry): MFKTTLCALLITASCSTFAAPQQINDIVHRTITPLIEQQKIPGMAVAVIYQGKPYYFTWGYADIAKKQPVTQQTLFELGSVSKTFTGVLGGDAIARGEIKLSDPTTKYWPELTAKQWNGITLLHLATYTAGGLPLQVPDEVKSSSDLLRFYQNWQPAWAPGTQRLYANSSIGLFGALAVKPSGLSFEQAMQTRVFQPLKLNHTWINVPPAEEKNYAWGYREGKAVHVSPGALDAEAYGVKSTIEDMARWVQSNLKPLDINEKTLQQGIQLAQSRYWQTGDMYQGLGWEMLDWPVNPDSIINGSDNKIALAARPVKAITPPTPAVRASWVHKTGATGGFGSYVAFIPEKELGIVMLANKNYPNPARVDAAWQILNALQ

Structure (SMILES) | Ki [µM]
OB(O)O [Boric acid] | 2800
O=C(CSc1ccncc1)NCB(O)O [Acylglycineboronic acid, 13] | 0.175
O=C(Cc1cccs1)NCB(O)O [N-2-THIOPHEN-2-YL-ACETAMIDE BORONIC ACID] | 0.32
CCOc1ccc2ccccc2c1C(=O)NCB(O)O [Acylglycineboronic acid, 10] | 0.033
O=C(COc1ccccc1)NCB(O)O [Acylglycineboronic acid, 7] | 0.7
O=C(CCl)NCB(O)O [Acylglycineboronic acid, 12] | 0.24
CC(Oc1ccccc1)C(=O)NCB(O)O (stereo unspecified) [Acylglycineboronic acid, 8] | 0.3
CC(=O)NCB(O)O [Acylglycineboronic acid, 5] | 18.5
CB(O)O [Methylboronic Acid] | 1000
O=CNCB(O)O [Acylglycineboronic acid, 3] | 4.8
O=C(Cc1ccccc1)NCB(O)O [Acylglycineboronic acid, 6] | 0.57
